Test results taken from US20090215859A1, “Compositions and methods for modulating dhr96” (priority 2004, published 2009).
“Also recorded” adds a separate entry of the source.

How the values were obtained:
DHR38 = conditions: cultured larval organs; cited from earlier work
[1] = solvent or supplied form; cited from earlier work
C. elegans nhr-8 mutant = conditions: mutation in the nuclear receptor nhr-8 gene; cited from earlier work
[2] = test system: wild type (Canton S) and DHR96 mutant adult flies; assay: Toxicity assay: adult flies exposed to DDT in 5% sucrose on filter paper, survival scored; format: in vivo, Drosophila melanogaster
Experimental: A time course is shown. 20 wild type or DHR96^E25 mutant flies were treated with a high concentration of DDT (100 ng/μl) and assayed for survival every hour up to 10 hours. Each assay (A+B) was done in triplicate to determine the standard deviation as shown by the error bars.
(§1) A dose response curve is shown. Twenty wild type or DHR96^E25 mutant flies were exposed to eight DDT concentrations, from 0.78 to 100 ng/μl, and then scored for survival 10 hours later. A similar test was conducted for sensitivity to tebufenizide (FIG. 11C) using larvae raised on food supplemented with the drug.
Adult flies were raised on standard cornmeal/agar food and starved overnight under humid conditions at 25 0 C before treatment with DDT. A DDT stock solution was prepared by dissolving crystalline DDT (Sigma) in 100% ethanol. Appropriate DDT dilutions were made by diluting the DDT stock with 5% sucrose and pipetting 275 μl of the solution onto a strip of Whatman filter paper inside a small glass scintillation vial. Twenty adult flies were placed in each vial which was plugged with cotton. Mortality was scored 10 hours later at room temperature. For each DDT concentration, three replicates, each of twenty adult flies, were used. For the time course assay, 100 ng/μl of DDT was used and mortality scored every hour for 10 hours.
As a test of DHR96 acting in a xenobiotic pathway, DHR96 mutants were tested for sensitivity to the pesticide DDT. Adult wild type flies (Canton S) and DHR96^16A were exposed or DHR96^E25 flies to varying concentrations of DDT and recorded survival rates after a fixed time.
(§2) The adult Canton S flies and the DHR96E25 outcrossed lines were exposed to varying concentrations of drug and recorded effects after a fixed time (FIG. 11). DDT was assayed by starving young healthy adult flies overnight and then transferring them to vials, in three groups of 20 flies each, with filter paper soaked with 5% sucrose alone or 5% sucrose and DDT at different concentrations. The number of living flies was scored after 23 hours. […] Tebufenozide was administered to larvae in the food, and the number of surviving adult flies was scored.

Cyp6g1 = Cyp6g1 induction by DDT in Canton S flies; format: in vivo, Drosophila melanogaster; conditions: one experiment
Excerpt: Validation can be conducted on selected genes, covering the different classes of detoxification pathways as well as new players that identified. Similar microarray studies using at least two other compounds, depending on which compounds show an effect in the viability and behavioral assays. It will be confirmed that wild type Canton S flies show a response to DDT using Cyp12d1 and other P450 genes as probes for northern blot hybridization. […] Other pesticides can also be surveyed for effects on a select group of Cyp gene targets to identify other compounds for use in comparative microarray profiling. […] Determining the transcriptional response to more than one xenobiotic compound can provide an initial impression of how insects respond to different toxins in their environment. […] Alternatively, the genetic response may be fine-tuned to combat specific xenobiotic compounds.

[3] = test system: Cyp6a2 and Cyp6a8 transcription; assay: Northern blot hybridization of Cyp transcription in adult flies treated with phenobarbital; conditions: adult flies treated with 0.3%, 1%, and 3% phenobarbital
Experimental: Each treatment is done in triplicate. RNA is extracted from each set of animals, purified by TRIzol extraction (Gibco BRL) followed by RNeasy column chromatography (Qiagen), and ethanol precipitation. The RNA is then labeled and hybridized to Affymetrix GeneChip® Drosophila Genome 2.0 arrays designed to detect 18,500 Drosophila transcripts. Data is then analyzed using DChip 1.3 (http://biosun1.harvard.edu/complab/dchip/) and Significance Analysis of Microarrays (SAM).

[4] = test system: Canton S and outcrossed DHR96E25 mutant larvae; assay: Tebufenozide administered to larvae in the food, surviving adult flies scored; format: in vivo, Drosophila melanogaster; conditions: larvae raised on food supplemented with the drug
Experimental: as §1, §2
The above assays are for testing the effect of xenobiotics on adult flies. Compounds can also be tested for their larvicidal effects by administering them in the food to staged populations of larvae (Grant et al. Bull. Envir. Contam. Tox. 69:35-40, 2002). DHR96 and Canton S control flies are maintained on normal cornmeal/molasses agar supplemented with yeast. Egg lays are collected overnight from these stocks and used to innoculate fresh vials of food supplemented with a specific concentration of the drug to be tested. […]

[5] = target: T1, GAL4-DHR96 fusion protein (Drosophila melanogaster, UniProt Q24143); assay: GAL4-LBD activation assay in cultured third instar larval organs (UAS-lacZ, Xgal staining); format: cell-based; conditions: organs of heat-induced hs-GAL4-DHR96; UAS-lacZ third instar larvae cultured with 1×10^−5 M tebufenozide
T1 construct: expressed in transfected cells; host or cells: transgenic Drosophila third instar larvae (hs-GAL4-DHR96; UAS-lacZ), dissected organs in culture
T1 sequence (Q24143 99-723): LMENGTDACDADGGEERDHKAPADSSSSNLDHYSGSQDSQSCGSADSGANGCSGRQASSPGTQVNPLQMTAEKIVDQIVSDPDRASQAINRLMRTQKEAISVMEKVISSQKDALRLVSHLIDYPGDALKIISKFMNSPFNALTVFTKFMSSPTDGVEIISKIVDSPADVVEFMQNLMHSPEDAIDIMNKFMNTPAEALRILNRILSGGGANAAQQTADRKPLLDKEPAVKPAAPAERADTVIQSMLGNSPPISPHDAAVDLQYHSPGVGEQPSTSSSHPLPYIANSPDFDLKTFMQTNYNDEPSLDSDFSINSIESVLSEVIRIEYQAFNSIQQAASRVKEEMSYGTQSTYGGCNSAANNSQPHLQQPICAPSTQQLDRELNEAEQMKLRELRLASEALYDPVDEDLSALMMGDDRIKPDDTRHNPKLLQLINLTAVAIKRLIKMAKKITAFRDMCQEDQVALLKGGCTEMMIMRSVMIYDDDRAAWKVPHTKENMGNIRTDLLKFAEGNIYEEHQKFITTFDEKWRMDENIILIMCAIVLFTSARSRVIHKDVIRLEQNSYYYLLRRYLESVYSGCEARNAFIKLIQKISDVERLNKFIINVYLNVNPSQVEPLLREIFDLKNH
Excerpt: A gene fusion of the GAL4 DNA binding domain (DBD) and DHR96 ligand binding domain (LBD) is expressed upon heat-induction of the hsp70 promoter. The resultant fusion protein can bind to GAL4 response elements (UAS) on a seperate transgenic construct, but will only activate lacZ transcription in the presence of an appropriate ligand and/or co-factors (a ligand is shown). β-galactosidase expression is detected as the substrate from an Xgal staining reaction.
Third instar larvae were heat-treated to induce GAL4-DHR96 expression, dissected, and organs were cultured in the presence of 1×10^−5 M tebufenozide. UAS-lacZ reporter gene expression was detected by Xgal staining. […]
DHR96 activation can be assayed for by using a method established to follow the activation status of a nuclear receptor ligand binding domain (LBD) in a developing animal. […] Expression of β-galactosidase can be detected by histochemical staining using X-gal as a substrate, generating a blue dye (FIGS. 13, 14). […]
An advantage of the GAL4-LBD system is that it can be used in tissues dissected from transgenic larvae to test specific compounds for their ability to activate the fusion protein. […] A similar assay can be used to test the ability of xenobiotic compounds to activate the GAL4-DHR96 fusion protein in cultured larval organs, using either UAS-lacZ or UAS-GFP as a readout. […]

[6] = living flies scored after 23 hours

CC(C)(O)CC[C@@H](O)[C@](C)(O)[C@H]1CC[C@@]2(O)C3=CC(=O)[C@@H]4C[C@H](O)[C@@H](O)C[C@]4(C)[C@H]3CC[C@]12C [3-epi-20-hydroxyecdysone]
Activation of DHR38 in the GAL4-LBD system (DHR38): can be activated

CNC(=O)Oc1cccc2ccccc12 [Carbaryl]
Solubility [1]: water

COc1cc2c(c(OC)c1OC)-c1ccc(OC)c(=O)cc1[C@@H](NC(C)=O)CC2 [Colchicine]
Resistance of nhr-8 mutant to the compound (C. elegans nhr-8 mutant): reduced resistance | Solubility [1]: ethanol

Clc1ccc(C(c2ccc(Cl)cc2)C(Cl)(Cl)Cl)cc1 [DDT]
Speed of death at a fixed concentration of DDT, DHR96 homozygotes vs wild type flies ([2]; 100 ng/μl DDT, mortality scored every hour for 10 hours): died more rapidly | Sensitivity to DDT (survival after a fixed time at varying concentrations), DHR96 mutants compared to control animals ([2]; adult DHR96^16A or DHR96^E25 flies vs Canton S, 0.78 to 100 ng/μl DDT, scored 10 hours later): more sensitive | Sensitivity to DDT treatment, original DHR96E25 mutant line vs Canton S [2, 6]: more sensitive | Sensitivity to DDT, outcrossed DHR96E25 line vs Canton S [2, 6]: no such sensitivity | Cyp6g1 induction (Cyp6g1): low level | Solubility [1]: ethanol

COP(=S)(OC)Oc1ccc([N+](=O)[O-])cc1 [Methyl parathion]
Solubility [1]: acetone

O=[N+]([O-])/C=C1\NCCCS1 [Nithiazine]
Solubility [1]: water

CC(=O)[C@H]1[C@H](C#N)C[C@H]2[C@@H]3CC=C4C[C@@H](O)CC[C@]4(C)[C@H]3CC[C@@]21C [PCN]
Solubility [1]: DMSO

C[n+]1ccc(-c2cc[n+](C)cc2)cc1 [Paraquat]
Solubility [1]: water

CO[C@H]1/C=C/O[C@@]2(C)Oc3c(C)c(O)c4c(O)c(c(/C=N/N5CCN(C)CC5)c(O)c4c3C2=O)NC(=O)/C(C)=C\C=C\[C@H](C)[C@H](O)[C@@H](C)[C@@H](O)[C@@H](C)[C@H](OC(C)=O)[C@@H]1C [Rifampicin]
Solubility [1]: DMSO

CCN(CC)C(=S)[S-].O.O.O.[Na+] [Sodium diethyldithiocarbamate trihydrate]
Solubility [1]: water

CCN(CC)CCCC(C)Nc1ccnc2cc(Cl)ccc12 (stereo not shown) [chloroquine]
Resistance of nhr-8 mutant to the compound (C. elegans nhr-8 mutant): reduced resistance

CCC1(c2ccccc2)C(=O)NC(=O)NC1=O [phenobarbital]
Cyp6a2 and Cyp6a8 transcription in the DHR96 mutant [3]: no change in expression | Cyp6a2 and Cyp6a8 transcription in wild type animals [3]: dramatic induction

CCc1ccc(C(=O)NN(C(=O)c2cc(C)cc(C)c2)C(C)(C)C)cc1 [tebufenozide]
Sensitivity of the outcrossed DHR96E25 mutant to tebufenozide (surviving adult flies) [4]: slight sensitivity | Activation of GAL4-DHR96 (UAS-lacZ reporter gene expression) [5]: activated; also recorded: reproducible and distinct pattern of activation

C[C@H]([C@H](O)CCC(C)(C)O)[C@H]1CC[C@@]2(O)C3=CC(=O)[C@@H]4C[C@@H](O)[C@@H](O)C[C@]4(C)[C@H]3CC[C@]12C [α-ecdysone]
Activation of DHR38 in the GAL4-LBD system (DHR38): can be activated
